Results taken from patent publication US10159678B2, “Methods to decrease susceptibility to asthmatic bronchoconstriction” (Cornell University, priority 2012, dated 2018).

Legend:
[1] = system: Human bronchial epithelial cells; test: Sphingolipids by mass spectrometry in human bronchial epithelial cells; assay type: cell-based; conditions: fenretinide (10 μM) for 3 hours; FIG. 7
Method: FIG. 7 illustrates that fenretinide increases metabolites of de-novo sphingolipid synthesis. Human bronchial epithelial cells were incubated with myriocin (1 μM) or fenretinide (10 μM) for 3 h in serum free medium supplemented with fatty acid-free bovine serum albumin (0.1%). Cell lysates were analyzed by mass spectrometry. The sums (mean+SEM) of all dihydroceramides are shown as a reflection of the activity of the de-novo sphingolipid synthesis pathway.
(§1) Human bronchial epithelial cells were incubated with either myriocin (1 μM) or fenretinide (10 μM) for 3 hours. The amounts of sphingolipids were then quantified by mass spectrometry.

[2] = system: Human bronchial epithelial cells; test: Viability of human bronchial epithelial cells; assay type: cell-based; conditions: myriocin (1 μM) or fenretinide (10 μM) for 3 hours
Method: as §1
The viability of the cells was not affected by fenretinide or myriocin. Fenretinide can induce cell death at doses as low as 5 μM in cancer cells (Wang et al. Cancer Res 61:5102-5 (2001)), but toxicity is usually not seen in doses up to 12 μM in non-malignant cells (Li et al., Cancer Letters 284:175-81 (2009); O'Donnell et al., Leukemia 16:902-10 (2002)). Accordingly, low doses of fenretinide may effectively alleviate bronchial hyper reactivity.

cancer cells = cancer cells (Wang et al. 2001); cited from earlier work
non-malignant cells = non-malignant cells (Li et al. 2009; O'Donnell et al. 2002); cited from earlier work
A549 cells = test: Sphinganine in cell lysates by LC-MS/MS after GlyH-101; assay type: cell-based; conditions: GlyH-101 (50 μM), A549 lung epithelial cell line; FIG. 6B
Method: (§2) GlyH-101 (50 μM) was added to culture media of cystic fibrosis tracheal cells, non-cystic fibrosis tracheal cells or A549 cells (a lung epithelial cell line).
(§3) Sphinganine, an intermediate of de-novo sphingolipid synthesis, was quantified in cell lysates by LC-MS/MS.

[3] = system: non-cystic fibrosis tracheal cells; test: as above; assay type: cell-based; conditions: GlyH-101 (50 μM) in culture media, non-CF airway epithelial cells; FIG. 6A
Method: as §2, §3

[4] = system: cystic fibrosis tracheal cells; test: as above; assay type: cell-based, human; conditions: GlyH-101 (50 μM) in culture medium, cells from the trachea of cystic fibrosis patients; FIG. 6A
Method: as §2, §3

CFTR [5] = target: T1, CFTR (Mus musculus, UniProt P26361); test: Myograph contractile response of bronchial rings from Sptlc2+/- or Sptlc2+/+ mice with GlyH-101 in bath; conditions: 2 hr in bath, methacholine (10 mM), FIG. 6C
T1 construct: administered directly to the respiratory tract; from tissue; host or cells: live Sptlc2+/+ and Sptlc2+/- mice (airways)
T1 sequence (P26361 whole entry): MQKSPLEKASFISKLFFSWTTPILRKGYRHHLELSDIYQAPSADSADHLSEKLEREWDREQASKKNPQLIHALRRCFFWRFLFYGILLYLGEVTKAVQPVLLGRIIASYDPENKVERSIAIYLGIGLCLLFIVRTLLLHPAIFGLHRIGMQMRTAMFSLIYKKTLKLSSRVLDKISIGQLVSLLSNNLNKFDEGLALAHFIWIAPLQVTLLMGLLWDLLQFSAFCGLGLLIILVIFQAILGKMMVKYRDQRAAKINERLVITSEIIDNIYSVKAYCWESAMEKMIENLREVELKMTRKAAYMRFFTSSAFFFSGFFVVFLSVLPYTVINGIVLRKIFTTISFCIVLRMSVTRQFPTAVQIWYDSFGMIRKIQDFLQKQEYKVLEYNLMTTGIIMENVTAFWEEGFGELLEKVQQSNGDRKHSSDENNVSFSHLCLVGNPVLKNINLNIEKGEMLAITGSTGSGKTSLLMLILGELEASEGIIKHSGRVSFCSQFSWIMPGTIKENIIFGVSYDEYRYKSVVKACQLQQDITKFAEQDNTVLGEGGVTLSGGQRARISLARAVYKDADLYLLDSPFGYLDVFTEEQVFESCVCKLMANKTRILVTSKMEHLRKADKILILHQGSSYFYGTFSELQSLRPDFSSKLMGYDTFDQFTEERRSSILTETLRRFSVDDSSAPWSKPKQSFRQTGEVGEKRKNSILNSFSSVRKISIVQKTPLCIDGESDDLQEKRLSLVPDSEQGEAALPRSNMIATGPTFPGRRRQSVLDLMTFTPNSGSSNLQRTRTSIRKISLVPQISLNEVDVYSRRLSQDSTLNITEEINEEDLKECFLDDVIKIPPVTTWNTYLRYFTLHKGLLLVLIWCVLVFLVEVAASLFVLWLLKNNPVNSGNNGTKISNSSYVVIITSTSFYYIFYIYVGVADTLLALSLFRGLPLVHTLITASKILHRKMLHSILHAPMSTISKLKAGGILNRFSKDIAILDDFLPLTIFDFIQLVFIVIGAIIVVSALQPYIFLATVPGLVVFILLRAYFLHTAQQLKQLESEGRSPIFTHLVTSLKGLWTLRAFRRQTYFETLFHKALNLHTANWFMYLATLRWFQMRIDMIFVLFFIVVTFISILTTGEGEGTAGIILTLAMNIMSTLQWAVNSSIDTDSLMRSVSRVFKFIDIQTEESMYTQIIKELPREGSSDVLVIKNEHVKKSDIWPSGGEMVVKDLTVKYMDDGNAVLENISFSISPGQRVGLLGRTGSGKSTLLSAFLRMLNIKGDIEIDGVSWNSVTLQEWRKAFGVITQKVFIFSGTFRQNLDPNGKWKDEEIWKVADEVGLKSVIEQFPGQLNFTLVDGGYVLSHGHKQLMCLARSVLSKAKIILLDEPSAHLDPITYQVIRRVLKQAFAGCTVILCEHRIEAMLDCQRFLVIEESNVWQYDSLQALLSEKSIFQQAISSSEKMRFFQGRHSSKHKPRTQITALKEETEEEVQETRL
Method: In another experiment, bronchial rings were isolated from Sptlc2^+/− or Sptlc2^+/+ mice and mounted in a myograph. CFTR inhibitor GlyH-101 or the solvent DMSO (control) were added to the bath solution. After 2 hr contractile responses of the rings stimulated with methacholine (10 mM) were determined.

CFTR [6] = target: T1, CFTR; test: Airway resistance to methacholine after intranasal GlyH-101 in Sptlc2+/+ and Sptlc2+/- mice; assay type: in vivo; conditions: GlyH-101 (5 μg) intranasally, after 3 h
Method: Mice were anaesthetized with pentobarbital (100 mg/kg; American Pharmaceutical Partners, Los Angeles, Calif.), tracheostomized and mechanically ventilated at a rate of 150 breaths/min, a tidal volume of 10 ml/kg and positive end-expiratory pressure of 2-3 cm H2O using a computer-controlled animal ventilator (Sireq, Montreal, Canada). Three perturbations were used to assess baseline respiratory mechanics and the effects were analyzed using the Flexivent software (Scireq): • (1) Static compliance was determined using the Salazar-Knowles equation (Colebatch et al., J Appl Physiol 46:387-393 (1971) to the plateau pressure measurements obtained between total lung capacity and functional residual capacity; • (2) Single-frequency forced oscillations were applied to determine tissue resistance (R), elastance (E) and dynamic compliance (C) using a single compartment model; • (3) Broadband forced oscillations were applied to determine Newtonian (airway) resistance (Rn), tissue damping (G) and tissue elastance using a constant phase model. Rn and G were also assessed following increasing doses of methacholine (3.125, 12.5 and 50 mg/ml). […]

SMILES | sum of all dihydroceramides [1] | viability of the cells [2] | doses that can induce cell death (cancer cells) [µM] | doses at which toxicity is usually not seen (non-malignant cells) | sphinganine level (A549 cells) | sphinganine level [3] | sphinganine level [4] | contractile response of bronchial rings upon methacholine (CFTR [5]; rings from Spt-deficient mice) | contractile response of bronchial rings (CFTR [5]; rings from wild type mice (Sptlc+/+)) | airway resistance after methacholine (CFTR [6]; Sptlc2+/- mice, FIG. 6E) | bronchial reactivity after methacholine (CFTR [6]; control Sptlc2+/+ mice, FIG. 6D)
CC1=C(/C=C/C(C)=C/C=C/C(C)=C/C(=O)Nc2ccc(O)cc2)C(C)(C)CCC1 [fenretinide, N-(4-hydroxyphenyl)retinamide] | increased | not affected | ≥ 5 | up to 12 μM | – | – | – | – | – | – | –
O=C(CNc1ccc2ccccc2c1)N/N=C/c1cc(Br)c(O)c(Br)c1O [GlyH-101, (Naphthalen-2-ylamino)-acetic acid (3,5-dibromo-2,4,-dihydroxybenzylidene)-hydrazide] | – | – | – | – | increases | increases | not altered | decreased | increased contractile response | alleviated | no effect
